Read-outs that look alike come from different tables or passages of the source.
Test system: blood-sugar
Experiment: Blood-sugar lowering activity in starved female rats after oral administration
Assay type: in vivo
Conditions: for change in vivo at 1 mg/kg / change in vivo at 5 mg/kg / change in vivo at 10 mg/kg / change in vivo at 0.6 mg/kg: Rattus norvegicus, po, read-out: Blood-sugar lowering activity, percent as compared with the controls; for change in vivo at 1 mg/kg / Blood-sugar lowering activity, percent as compared with the controls: 1 mg/kg orally; for change in vivo at 5 mg/kg: 5 mg/kg orally; for change in vivo at 10 mg/kg: 10 mg/kg orally (footnote *); for change in vivo at 0.6 mg/kg: 0.6 mg/kg orally
Experimental: The blood-sugar lowering activity of the test compounds was determined in home-bred female rats with weights of from 180 to 220 grams. Twenty-four hours before starting the test the animals were starved. Before the test the compounds were suspended in 1.5% methyl cellulose and administered to the animals by means of an esophageal tube.
Blood was taken from the retroorbital plexus vein before administration of the test compounds as well as each of 1, 2, 3, and 4 hours after administration. Fifty microliters of each sample were deproteinized with 0.5 ml of 0.33N perchloric acid and centrifuged. The glucose content was determined in the supernatant according to the Hexokinase method by means of an analysis photometer. The statistical evalulation was performed with the t-test according to Student with p=0.05.

[1] = 1 hour, n.s. = not statistically significant
[2] = 2 hours, n.s. = not statistically significant
[3] = 3 hours, n.s. = not statistically significant
[4] = 4 hours, n.s. = not statistically significant

Compound	change in vivo at 1 mg/kg [1]	change in vivo at 1 mg/kg [2]	change in vivo at 1 mg/kg [3]	change in vivo at 1 mg/kg [4]	change in vivo at 5 mg/kg [1]	change in vivo at 5 mg/kg [2]	change in vivo at 5 mg/kg [3]	change in vivo at 5 mg/kg [4]	Blood-sugar lowering activity, percent as compared with the controls [4]	Blood-sugar lowering activity, percent as compared with the controls [3]	change in vivo at 10 mg/kg (1 hour)	change in vivo at 10 mg/kg (2 hours)	change in vivo at 10 mg/kg [3]	change in vivo at 10 mg/kg [4]	change in vivo at 0.6 mg/kg (1 hour)	change in vivo at 0.6 mg/kg (2 hours)	change in vivo at 0.6 mg/kg (3 hours)	change in vivo at 0.6 mg/kg (4 hours)
CCCC(NC(=O)Cc1ccc(C(=O)O)cc1)c1ccc(F)cc1N1CCCCC1 (stereo not shown) [V, 4-[(1-(4-Fluoro-2-piperidino-phenyl)-1-butyl)-aminocarbonylmethyl]-benzoic acid]	-37%	-23%	-30%	-18%	-45%	-41%	-46%	-40%										
Cc1cccc(C(C)NC(=O)Cc2ccc(C(=O)O)cc2)c1N1CCCCC1 (stereo not shown) [Z, 4-[(1-(3-Methyl-2-piperidino-phenyl)-1-ethyl)-aminocarbonylmethyl]-benzoic acid]					-22%	-33%	-28%	-26%										
CCCC(NC(=O)Cc1ccc(C(=O)O)cc1)c1ccccc1N1CCCCCC1 (stereo not shown) [M, 4-[(1-(2-Hexahydroazepino-phenyl)-1-butyl)-aminocarbonylmethyl]-benzoic acid]	-33%	-30%	-21%		-46%	-43%	-40%	-36%	n.s.									
O=C(Cc1ccc(C(=O)O)cc1)NC(c1cccc(Cl)c1)c1ccccc1N1CCCCC1 (stereo not drawn) [AF, 4-[(α-(3-Chloro-phenyl)-2-piperidino-benzyl)-aminocarbonylmethyl]-benzoic acid]	-17%	-19%			-43%	-39%	-30%	-26%	n.s.	n.s.								
CCCC(NC(=O)Cc1ccc(CC(=O)O)cc1)c1ccccc1N1CCCCC1 (stereo not shown) [S, 4-[(1-(2-Piperidino-phenyl)-1-butyl)-aminocarbonylmethyl]-phenyl-acetic acid]	-29%	-20%	-10%		-49%	-42%	-30%	-17%	n.s.									
CC1CCCN(c2ccccc2C(NC(=O)Cc2ccc(C(=O)O)cc2)c2ccccc2)C1 (stereo not drawn) [AR, 4-[(2-(3-Methyl-piperidino)-α-phenyl-benzyl)-aminocarbonylmethyl]-benzoic acid]	-13%	-9%			-35%	-30%	-29%	-31%	n.s.	n.s.								
O=C(O)CCc1ccc(CC(=O)NC(c2ccccc2)c2ccccc2N2CCCCC2)cc1 (stereo not drawn) [AL, 3-{4-[(α-Phenyl-2-piperidino-benzyl)-aminocarbonylmethyl]-phenyl}-propionic acid]	-40%	-31%	-23%	-12%							-43%	-41%	-38%	-34%				
O=C(O)C=Cc1ccc(CC(=O)NC(c2ccccc2)c2ccccc2N2CCCCC2)cc1 (stereo not drawn) [AK, 4-[(α-Phenyl-2-piperidino-benzyl)-aminocarbonylmethyl]-cinnamic acid]	-32%	-19%	-10%	-17%							-48%	-47%	-40%	-45%				
O=Cc1ccc(CC(=O)NC(c2ccccc2)c2ccccc2N2CCCCC2)cc1 (stereo not drawn) [AP, 4-[(α-Phenyl-2-piperidino-benzyl)-aminocarbonylmethyl]-benzaldehyde]	-26%	-28%	-22%	-17%														
CC(NC(=O)Cc1ccc(C(=O)O)cc1)c1ccccc1N1CCCCC1 (single isomer, unassigned; (+)) [AU, (+)-4-[(1-(2-Piperidino-phenyl)-1-ethyl)-aminocarbonylmethyl]-benzoic acid]	-41%	-22%	-17%	-15%														
O=C(Cc1ccc(C(=O)O)cc1)NC(c1ccccc1)c1ccccc1N1CCCCC1 (single isomer, unassigned; (-)) [AW, (-)-4-[(2-Piperidino-benzhydryl)-aminocarbonylmethyl]-benzoic acid]															-40%	-34%	-31%	-26%
O=C(Cc1ccc(C(=O)O)cc1)NC(c1ccccc1)c1c(Cl)cccc1N1CCCCC1 (stereo not drawn) [AJ, 4-[(6-Chloro-α-phenyl-2-piperidino-benzyl)-aminocarbonylmethyl]-benzoic acid]	-35%	-34%	-28%	-20%	-44%	-40%	-39%	-40%										
CCCC(NC(=O)Cc1ccc(C(=O)O)cc1)c1ccccc1N1CCCCC1 (single isomer, unassigned; (+)) [K, (+)-4-[(1-(2-Piperidino-phenyl)-1-butyl)-aminocarbonylmethyl]-benzoic acid]	-41%	-43%	-38%	-31%														
O=C(Cc1ccc(C(=O)O)cc1)N/C(=C\Cc1ccccc1)c1ccccc1N1CCCCC1 [F, (Z)-4-[(3-Phenyl-1-(2-piperidino-phenyl)-1-propen-1-yl)-aminocarbonylmethyl]-benzoic acid]					-43%	-42%	-39%	-32%										
CC/C=C(\NC(=O)Cc1ccc(C(=O)OCC)cc1)c1ccccc1N1CCCCC1 [B, (Z)-4-[(1-(2-Piperidino-phenyl)-1-buten-1-yl)-aminocarbonylmethyl]-benzoic acid ethyl ester]	-39%	-19%	-26%	-30%	-44%	-39%	-26%	-35%										
CCCC(NC(=O)Cc1ccc(C=CC(=O)O)cc1)c1ccccc1N1CCCCC1 (stereo not shown) [T, 4=[(1-(2-Piperidino-phenyl)-1-butyl)-aminocarbonylmethyl]-cinnamic acid]	-42%	-42%	-40%	-32%	-48%	-46%	-42%	-40%										
CCCC(NC(=O)Cc1ccc(C(=O)OCC(O)CO)cc1)c1ccccc1N1CCCCC1 (stereo not shown) [U, 4-[(1-(2-Piperidino-phenyl)-1-butyl)-aminocarbonylmethyl]-benzoic acid 2,3-dihydroxy-propyl ester]	-39%	-35%	-29%	-24%	-43%	-43%	-49%	-45%										
